The record followed here is PubChem BioAssay (NCI).

Some test systems named below: HCT-116 colon; HCT-15 colon; HL-60(TB) leukemia; LOX IMVI melanoma; MALME-3M melanoma; MCF7 breast; NCI/ADR-RES ovarian; SR leukemia; TK-10 renal; UACC-257 melanoma; UACC-62 melanoma; UO-31 renal.
Assay in all cases: inhibition of tumour cell growth, NCI panel, 48 h

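Protocol summary: plate cells (96-well), add compound at 5 concentrations, incubate 48 h, interpolate endpoints linearly. GI50 = concentration required for 50% inhibition of growth. At the TGI there is no net growth.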

As to `C[Si](C)(OCCS(=O)(=O)O)C1S(=O)(=O)OCCOS1(=O)=O`, the TGI in the assay on HCT-116 colon, in the assay with HCT-15 colon, with HL-60(TB) leukemia, in the assay with LOX IMVI melanoma, in the assay on MALME-3M melanoma and with MCF7 breast was > 100 µM throughout. The TGI in the assay on NCI/ADR-RES ovarian, with SR leukemia, with TK-10 renal, with UACC-257 melanoma, in the assay on UACC-62 melanoma and in the assay on UO-31 renal was > 100 µM in each case.

Regarding `CN(C)c1ccc(/C=C/C=C(/C#N)c2ccccc2)cc1`, the TGI was > 77 µM with HCT-116 colon; > 100 µM in the assay with HCT-15 colon; 33 µM in the assay with HL-60(TB) leukemia; > 74.3 µM with LOX IMVI melanoma; > 100 µM in the assay on MALME-3M melanoma; > 87.9 µM in the assay on MCF7 breast. Also, the TGI in the assay with NCI/ADR-RES ovarian was 35.3 µM; in the assay with SR leukemia, > 39.7 µM; in the assay on TK-10 renal it was > 100 µM; in the assay on UACC-257 melanoma, > 100 µM; with UACC-62 melanoma, > 100 µM; with UO-31 renal, > 100 µM.

Regarding `COC(=O)/C=c1/c2ccccc2n2nc3ccccc3c12`, the TGI in the assay on HCT-116 colon, in the assay on HCT-15 colon, with HL-60(TB) leukemia, with LOX IMVI melanoma, in the assay on MALME-3M melanoma and with MCF7 breast was > 100 µM each time. For the same molecule, the TGI in the assay with NCI/ADR-RES ovarian was > 100 µM; with SR leukemia, 17.1 µM; with TK-10 renal, > 100 µM; in the assay with UACC-257 melanoma, > 100 µM; in the assay on UACC-62 melanoma, > 100 µM; in the assay on UO-31 renal, > 100 µM.

For `C=CC[C@H](C)CCC(=O)N1[C@H]2CC3CC[C@@]2(CS1(=O)=O)C3(C)C`, the TGI in the assay with HCT-116 colon is > 100 µM; in the assay on HCT-15 colon, 74.9 µM; with HL-60(TB) leukemia, 57.3 µM; in the assay on LOX IMVI melanoma, 83 µM; with MALME-3M melanoma, > 100 µM; in the assay on MCF7 breast, > 100 µM. Moreover, the TGI in the assay with NCI/ADR-RES ovarian, in the assay with SR leukemia, in the assay with TK-10 renal, in the assay with UACC-257 melanoma, in the assay with UACC-62 melanoma and in the assay on UO-31 renal was > 100 µM in each case.

Turning to `O=S1C2=C(Cc3ccccc3)C(Cc3ccccc3)=C1CCc1cccc(c1)CC2`, the TGI with HCT-116 colon was determined as 21.5 µM; with HCT-15 colon it was 30.5 µM; with HL-60(TB) leukemia, 59.8 µM; in the assay on LOX IMVI melanoma, 28.1 µM; with MALME-3M melanoma, 32.5 µM; in the assay on MCF7 breast, 25.7 µM. The TGI is 38.7 µM in the assay on NCI/ADR-RES ovarian; 90.2 µM in the assay on SR leukemia; 33.7 µM in the assay with TK-10 renal; 27.8 µM in the assay with UACC-257 melanoma; 24.7 µM in the assay with UACC-62 melanoma; 25.8 µM in the assay on UO-31 renal.

On to `OC1COC(n2c3ccc(Br)cc3c3ccc4c5ccccc5[nH]c4c32)C(O)C1O` (centres undefined), for which the TGI is 12 µM in the assay on HCT-116 colon; 15.7 µM with HCT-15 colon; 8.75 µM in the assay on HL-60(TB) leukemia; 10.4 µM with LOX IMVI melanoma; 15.3 µM with MALME-3M melanoma; 14.2 µM in the assay with MCF7 breast. Also, the TGI in the assay with NCI/ADR-RES ovarian was 19.1 µM; in the assay with SR leukemia it was 13.3 µM; in the assay on TK-10 renal, 13.9 µM; with UACC-257 melanoma, 19.9 µM; in the assay with UACC-62 melanoma, 1.53 µM; in the assay on UO-31 renal it was 14.2 µM.

Consider `COC(=O)c1cc(C#Cc2cc(OC)ccc2OC)ccc1OC`, for which the figures for the GI50 in the assay on HCT-116 colon and in the assay with UACC-62 melanoma were 37.7 µM and 29.3 µM, respectively. The TGI in the assay on HCT-116 colon, in the assay on HCT-15 colon, in the assay with HL-60(TB) leukemia, in the assay on LOX IMVI melanoma, in the assay on MALME-3M melanoma and in the assay with MCF7 breast was > 100 µM throughout. For the same molecule, the TGI with NCI/ADR-RES ovarian, in the assay with SR leukemia, in the assay with TK-10 renal, in the assay with UACC-257 melanoma, in the assay on UACC-62 melanoma and in the assay with UO-31 renal was > 100 µM in each case.

With `O=c1[nH]nc(Cc2ccccc2)n1Nc1ccccc1`, the TGI with HCT-116 colon, in the assay with HCT-15 colon, in the assay on HL-60(TB) leukemia, with LOX IMVI melanoma, in the assay on MALME-3M melanoma and with MCF7 breast was > 100 µM in each case. Moreover, the TGI in the assay with NCI/ADR-RES ovarian, in the assay with SR leukemia, in the assay on TK-10 renal, in the assay with UACC-257 melanoma, with UACC-62 melanoma and in the assay on UO-31 renal was > 100 µM in each case.

With `COCCOCCOC1=C(Cl)C(=O)c2c(O)ccc(O)c2C1=O`, the TGI in the assay on HCT-116 colon amounted to 2.46 µM; with HCT-15 colon, 3.42 µM; in the assay with HL-60(TB) leukemia, 1.89 µM; in the assay with LOX IMVI melanoma, 4.59 µM; in the assay with MALME-3M melanoma it was 3.34 µM; in the assay on MCF7 breast, 4.62 µM. The TGI with NCI/ADR-RES ovarian stood at 9.14 µM; in the assay on SR leukemia, 3.04 µM; in the assay with TK-10 renal, 3.25 µM; in the assay on UACC-257 melanoma, 4.04 µM; in the assay on UACC-62 melanoma it was 7.85 µM; in the assay with UO-31 renal, 4.83 µM.

For `O=C1CCCCc2cccc(O)c21`, the TGI in the assay with HCT-116 colon, in the assay with HCT-15 colon, with HL-60(TB) leukemia, in the assay on LOX IMVI melanoma, with MALME-3M melanoma and in the assay with MCF7 breast was > 100 µM throughout. The TGI in the assay with NCI/ADR-RES ovarian, in the assay with SR leukemia, in the assay on TK-10 renal, in the assay with UACC-257 melanoma, in the assay on UACC-62 melanoma and in the assay on UO-31 renal was > 100 µM throughout.

`Clc1ccc(C2NN=C3c4ccccc4OCC32)cc1` (centres undefined): the TGI with HCT-116 colon is > 36.4 µM; in the assay with HCT-15 colon, 13.5 µM; in the assay with HL-60(TB) leukemia, 11.9 µM; in the assay on LOX IMVI melanoma, 27.6 µM; with MALME-3M melanoma, 23.1 µM; with MCF7 breast it was > 45.2 µM. Further, the TGI was 6.14 µM in the assay with NCI/ADR-RES ovarian; 5.67 µM in the assay with SR leukemia; > 100 µM in the assay with TK-10 renal; 87.4 µM with UACC-257 melanoma; > 47.2 µM in the assay on UACC-62 melanoma; 41.4 µM in the assay with UO-31 renal.
